# Data taken from patent US4895933A, “New antitumor agent obtained by microbial stereoselective reduction of 4'-deoxy-4'-iododoxorubicin” (Farmitalia Carlo Erba S.p.A., priority 1987, dated 1990).
# Like-named read-outs stand apart in the source and are kept apart here.
# How the values were obtained:
# [1] = tested on: HeLa cells; assay: in vitro cytotoxic activity, HeLa cells colony formation; assay type: cell-based, human; details: for IC50: HeLa, read-out: ID50 (dose giving 50% reduction of cell number in comparison with untreated controls)
# Source text: ^(a) Dose giving 50% reduction of cell number in comparison with […]
# [2] = tested on: disseminated Gross leukemia; assay: in vivo antitumor activity against disseminated Gross leukemia; set-up: species or system C3H mice; details: for Toxic deaths (evaluated on the basis of autopsy findings on dead mice): C3H mice; for T/C % (median survival time of treated mice/median survival time of controls × 100): day after tumor injection, in parentheses: single experiments
# Description: The "in vivo" antitumor activity, FCE 24883 (II) was tested against disseminated Gross leukemia. C3H mice were injected intravenously with 2.10^6 cell/mouse and treated with compounds under study 24 hours after the tumor injection.
# ^(a) C3H mice were injected i.v. with 2 × 10^6 leukemia
# cells and treated i.v. with the compounds the day after the tumor
# ^(b) (Median survival time of treated mice/median survival time of
# ^(c) Evaluated on the basis of autopsy findings on dead mice.
# [3] = tested on: P388 leukemia cells; assay: in vitro cytotoxic activity, P388 cells colony formation; assay type: cell-based; details: for IC50: Mus musculus
# Source text: ^(a) Dose giving 50% reduction of cell number in comparison with
# ^(c) P388 leukemia cells.
# [4] = tested on: experimental tumors; assay: activity on experimental tumors (general statement); details: in vivo
# [5] = solubility; assay type: physicochemical
# [6] = human cervix epithelioid carcinoma cells
# [7] = P388 leukemia cells, read-out: ID50 (dose giving 50% reduction of cell number in comparison with untreated controls)
smiles,measurement,setting,value
"COc1cccc2c1C(=O)c1c(O)c3c(c(O)c1C2=O)C[C@@](O)(C(=O)CO)C[C@@H]3O[C@H]1C[C@H](N)[C@H](O)[C@H](C)O1 [DX, Doxorubicin]",IC50,[1]; Homo sapiens,10.8 ng/mL
same,Toxic deaths (evaluated on the basis of autopsy findings on dead mice),[2]; 10 mg/Kg i.v.,0/20
same,T/C % (median survival time of treated mice/median survival time of controls × 100),[2]; 10 mg/Kg i.v.,"200 (200, 200) %"
same,Toxic deaths (evaluated on the basis of autopsy findings on dead mice),[2]; 13 mg/Kg i.v.,0/20
same,T/C % (median survival time of treated mice/median survival time of controls × 100),[2]; 13 mg/Kg i.v.,"225 (230, 220) %"
same,Toxic deaths (evaluated on the basis of autopsy findings on dead mice),[2]; 16.9 mg/Kg i.v.,2/20
same,T/C % (median survival time of treated mice/median survival time of controls × 100),[2]; 16.9 mg/Kg i.v.,"250 (260, 240) %"
same,IC50,"[3]; P388, read-out: ID50 (dose giving 50% reduction of cell number in comparison with untreated controls)",8 ng/mL
"COc1cccc2c1C(=O)c1c(O)c3c(c(O)c1C2=O)C[C@@](O)([C@@H](O)CO)C[C@@H]3O[C@H]1C[C@H](N)[C@H](I)[C@H](C)O1 [FCE 24883 (II), 4'-deoxy-13(S)-dihydro-4'-iododoxorubicin]","cytotoxic activity, potency in comparison with compound I and doxorubicin","[1]; HeLa cells, in vitro",as potent as 4'-deoxy-4'-iododoxorubicin (I) and doxorubicin
same,IC50,[1]; [6],8 ng/mL
same,Toxic deaths (evaluated on the basis of autopsy findings on dead mice),[2]; 4 mg/Kg i.v.,0/10
same,T/C % (median survival time of treated mice/median survival time of controls × 100),[2]; 4 mg/Kg i.v.,180 (180) %
same,Toxic deaths (evaluated on the basis of autopsy findings on dead mice),[2]; 5.2 mg/Kg i.v.,0/20
same,T/C % (median survival time of treated mice/median survival time of controls × 100),[2]; 5.2 mg/Kg i.v.,"220 (220, 220) %"
same,Toxic deaths (evaluated on the basis of autopsy findings on dead mice),[2]; 6.8 mg/Kg i.v.,0/20
same,T/C % (median survival time of treated mice/median survival time of controls × 100),[2]; 6.8 mg/Kg i.v.,"220 (220, 220) %"
same,Toxic deaths (evaluated on the basis of autopsy findings on dead mice),[2]; 8.8 mg/Kg i.v.,5/9
same,T/C % (median survival time of treated mice/median survival time of controls × 100),[2]; 8.8 mg/Kg i.v.,140 (140) %
same,toxicity displayed,[2]; at the active doses,minor toxicity
same,antitumor potency in comparison with compound I,[2]; at the optimal dose,as potent as 4'-deoxy-4'-iododoxorubicin (I)
same,antitumor potency in comparison with doxorubicin,[2]; at the optimal dose,more potent than doxorubicin
same,"antitumor activity, evaluated as median survival time of treated over control mice, in comparison with I and doxorubicin","[2]; mouse, in vivo",can be compared with those of I and doxorubicin
same,activity on experimental tumors in comparison with compound I,[4],comparable with that of 4'-deoxy-4'-iododoxorubicin (I)
same,IC50,[3]; [7],3.5 ng/mL
same,"cytotoxic activity, potency in comparison with compound I and doxorubicin","[3]; P388 cells, in vitro",as potent as 4'-deoxy-4'-iododoxorubicin (I) and doxorubicin
same,solubility of the free base,"[5]; free base, polar organic solvents and aqueous alcohols",soluble in polar organic solvents and aqueous alcohols
same,solubility of the hydrochloride in organic solvents,"[5]; hydrochloride, organic solvents",slighty soluble in organic solvents
same,solubility of the hydrochloride in water and lower alcohols,"[5]; hydrochloride, water and lower alcohols",soluble in water and lower alcohols
"COc1cccc2c1C(=O)c1c(O)c3c(c(O)c1C2=O)C[C@@](O)(C(=O)CO)C[C@@H]3O[C@H]1C[C@H](N)[C@H](I)[C@H](C)O1 [FCE 21954 (I), 4'-deoxy-4'-iododoxorubicin]",IC50,[1]; [6],10.4 ng/mL
same,Toxic deaths (evaluated on the basis of autopsy findings on dead mice),[2]; 4 mg/Kg i.v.,0/20
same,T/C % (median survival time of treated mice/median survival time of controls × 100),[2]; 4 mg/Kg i.v.,"240 (240, 240) %"
same,Toxic deaths (evaluated on the basis of autopsy findings on dead mice),[2]; 5.2 mg/Kg i.v.,4/20
same,T/C % (median survival time of treated mice/median survival time of controls × 100),[2]; 5.2 mg/Kg i.v.,"260 (260, 260) %"
same,Toxic deaths (evaluated on the basis of autopsy findings on dead mice),[2]; 6.8 mg/Kg i.v.,19/20
same,T/C % (median survival time of treated mice/median survival time of controls × 100),[2]; 6.8 mg/Kg i.v.,"145 (160, 130) %"
same,IC50,[3]; [7],2.1 ng/mL
